For the test, the target named is T1, human PDE4B1 (Homo sapiens, UniProt Q07343).
T1 construct: host or cells: Sf9 cells
Description: cAMP HTRF assay to determine the activity of hPDE4B1. The following applies: for inhibition at 1 µM: 1 μM test concentration, human recombinant PDE4B1, cAMP 40 nM, read-out: Inhibition at 1 μM test concentration [%] (Percentage inhibition of PDE4B); for IC50: measured according to the cAMP HTRF hPDE4B1 assay, read-out: PDE4B IC50. Type of test: biochemical. How it is done: cAMP HTRF® Assay to Determine the Activity of hPDE4B1
The inhibiting effect of the compounds on the enzyme activity of human PDE4B1 was measured by the quantification of 5′-adenosine monophosphate (5′-AMP), which is formed from 3′,5′-adenosine monophosphate (cAMP). Human recombinant enzyme, expressed in Sf9 cells, and the HTRF (homogeneous time-resolved fluorescence) detection method were used in the assay.
The test compound or water (control) was mixed with the human recombinant PDE4B1 enzyme (4.8 U) in a buffer consisting of 44.4 mM tris-HCl, 5.28 mM MgCl2, 2.64 mM DTT and 0.044% Tween 20 (pH 7.8). After adding the cAMP enzyme substrate (final concentration 40 nM) the mixture was incubated for 30 minutes at room temperature. Then a fluorescence acceptor (Dye2 marked with cAMP), a fluorescence donor (anti-cAMP antibody marked with a europium cryptate) and the non-specific phosphodiesterase inhibitor IBMX (3-isobutyl-1-methylxanthine; final concentration 1 mM) were added. After 60 minutes the fluorescence transfer, which correlates with the amount of remaining cAMP, was measured with a microplate reader (Rubystar, BMG) at λex=337 nm, λem=620 nm and λem=665 nm. The enzyme activity was calculated from the quotient formed from the measured signal at 665 nm and that at 620 nm. The result was expressed as the percentage inhibition of enzyme activity of the control (without PDE4 inhibitor) (literature: N. Saldou et al., Comparison of recombinant human PDE4 isoforms: interaction with substrate and inhibitors, Cell. Signal. Vol. 10, No. 6, 427-440, 1998). The enzyme was omitted for measurement of the basal control.
In general terms: In TR-FRET formats the signal depends on donor and acceptor labels being close together.

T1 sequence (Q07343 whole entry): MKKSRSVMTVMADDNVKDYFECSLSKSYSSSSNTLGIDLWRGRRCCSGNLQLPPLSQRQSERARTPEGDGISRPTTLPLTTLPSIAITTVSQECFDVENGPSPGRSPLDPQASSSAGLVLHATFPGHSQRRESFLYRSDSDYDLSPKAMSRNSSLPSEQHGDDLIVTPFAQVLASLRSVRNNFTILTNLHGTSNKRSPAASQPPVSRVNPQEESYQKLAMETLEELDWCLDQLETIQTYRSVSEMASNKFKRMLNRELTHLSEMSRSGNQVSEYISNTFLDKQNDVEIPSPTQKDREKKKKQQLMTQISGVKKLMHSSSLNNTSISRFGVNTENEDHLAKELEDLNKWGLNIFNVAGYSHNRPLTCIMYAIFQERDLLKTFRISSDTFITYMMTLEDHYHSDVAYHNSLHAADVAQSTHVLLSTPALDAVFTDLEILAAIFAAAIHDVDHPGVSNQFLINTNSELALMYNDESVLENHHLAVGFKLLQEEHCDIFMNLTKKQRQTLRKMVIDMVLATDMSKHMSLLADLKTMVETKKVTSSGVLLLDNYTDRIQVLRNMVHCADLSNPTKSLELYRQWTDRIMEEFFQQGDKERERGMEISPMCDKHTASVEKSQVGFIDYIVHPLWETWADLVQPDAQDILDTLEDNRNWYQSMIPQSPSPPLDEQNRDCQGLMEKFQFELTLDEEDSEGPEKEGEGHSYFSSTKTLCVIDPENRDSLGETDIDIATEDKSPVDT

As to `O=C(O)Cc1ccc(Oc2nc(-c3ccc(Cl)s3)nc3c2CSC3)cc1` [Compound 19, 2-(4-(2-(5-Chlorothiophen-2-yl)-5,7-dihydrothieno[3,4-d]pyrimidin-4-yloxy)phenyl)acetic acid], the inhibition at 1 µM was 98% and the half-maximal inhibitory concentration (IC50) – broadly, the point on the concentration scale where inhibition reaches its midpoint – is < 100 nM. As to `COc1ccc(-c2nc3c(c(Oc4ccc(CC(=O)O)cc4)n2)CS(=O)(=O)C3)cc1` [Compound 18, 2-[4-[[2-(4-Methoxyphenyl)-6,6-dioxo-5,7-dihydro-thieno[3,4-d]pyrimidin-4-yl]oxy]-phenyl]-acetic acid], the inhibition at 1 µM amounted to 112% and the IC50 was < 100 nM. As for `O=C(O)Cc1ccc(Oc2nc(-c3ccc(Cl)s3)nc3c2CSCC3)cc1` [Compound 22, 2-(4-(2-(5-Chlorothiophen-2-yl)-7,8-dihydro-5H-thiopyrano[4,3-d]pyrimidin-4-yloxy)phenyl)acetic acid], the inhibition at 1 µM was 50%. Consider `CC1Cc2nc(-c3ccc(Cl)s3)nc(Oc3ccc(CC(=O)O)cc3)c2C1` (centres unmarked) [Compound 59, 2-(4-((2-(5-Chlorothiophen-2-yl)-6-methyl-6,7-dihydro-5H-cyclopenta[d]pyrimidin-4-yl)oxy)phenyl)acetic acid], for which the inhibition at 1 µM was 62%. On the same count and under the same terms, the result for `O=C(O)c1ccc(Oc2nc(-c3ccc(Cl)s3)nc3c2CCCC3)cc1` [Compound 11, 4-(2-(5-Chlorothiophen-2-yl)-5,6,7,8-tetrahydroquinazolin-4-yloxy)benzoic acid] reads 44%; that for `O=C(O)Cc1ccc(Oc2nc(-c3ccc(Br)cc3)nc3c2CCC3)cc1` [Compound 53, 2-(4-((2-(4-Bromophenyl)-6,7-dihydro-5H-cyclopenta[d]pyrimidin-4-yl)oxy)phenyl)acetic acid], 51%; that for `O=C(O)c1ccc(Oc2nc(-c3ccc(F)c(F)c3)nc3c2CCC3)cc1` [Compound 6, 4-(2-(3,4-Difluorophenyl)-6,7-dihydro-5H-cyclopenta[d]pyrimidin-4-yloxy)benzoic acid], 55%. Take `O=C(O)Cc1ccc(Oc2nc(-c3ccc(Br)s3)nc3c2CCC3)cc1` [Compound 49, 2-(4-(2-(5-Bromothiophen-2-yl)-6,7-dihydro-5H-cyclopenta[d]pyrimidin-4-yloxy)phenyl)acetic acid]: the inhibition at 1 µM is 59%.

On to `COc1ccc(-c2nc3c(c(Oc4ccc(CC(=O)O)cc4)n2)CS(=O)(=O)C3)cc1Cl` [Compound 17, 2-[4-[[2-(3-Chloro-4-methoxy-phenyl)-6,6-dioxo-5,7-dihydro-thieno[3,4-d]pyrimidin-4-yl]oxy]-phenyl]-acetic acid], for which the inhibition at 1 µM was determined as 95% and the IC50 is < 100 nM. In the case of `O=C(O)Cc1ccc(Oc2nc(-c3ccc(Cl)s3)nc3c2CC(F)(F)CC3)cc1` [Compound 12, 2-(4-(2-(5-Chlorothiophen-2-yl)-6,6-difluoro-5,6,7,8-tetrahydroquinazolin-4-yloxy)phenyl)acetic acid], the inhibition at 1 µM turned out to be 23%.

As to `COc1ccc(-c2nc3c(c(Oc4ccc(C(=O)O)cc4)n2)CCC3)cc1Cl` [Compound 5, 4-(2-(3-Chloro-4-methoxyphenyl)-6,7-dihydro-5H-cyclopenta[d]pyrimidin-4-yloxy)benzoic acid], the inhibition at 1 µM is 71%. In the case of `O=C(O)Cc1ccc(Oc2nc(-c3ccc(F)s3)nc3c2CS(=O)(=O)C3)cc1` [Compound 15, 2-[4-[[2-(5-Fluoro-thiophen-2-yl)-6,6-dioxo-5,7-dihydro-thieno[3,4-d]pyrimidin-4-yl]oxy]-phenyl]-acetic acid], the inhibition at 1 µM stood at 86% and the IC50 was < 100 nM.

`O=C(O)Cc1ccc(Oc2nc(-c3ccc(Cl)s3)nc3c2CS(=O)(=O)CC3)cc1` [Compound 24, 2-[4-[[2-(5-Chloro-thiophen-2-yl)-6,6-dioxo-7,8-dihydro-5H-thiopyrano[4,3-d]pyrimidin-4-yl]oxy]-phenyl]-acetic acid]: the inhibition at 1 µM was 33%.

Take `O=C(O)Cc1ccc(Oc2nc(-c3ccc(Cl)s3)nc3c2CS(=O)(=O)C3)cc1` [Compound 21, 2-[4-[[2-(5-Chloro-thiophen-2-yl)-6,6-dioxo-5,7-dihydro-thieno[3,4-d]pyrimidin-4-yl]oxy]-phenyl]-acetic acid]: the inhibition at 1 µM was found to be 91% and the 50% inhibitory concentration (IC50) was < 100 nM. As for `O=C(O)c1ccc(Oc2nc(-c3ccc(Cl)s3)nc3c2CCC3)cc1` [Compound 8, 4-(2-(5-Chlorothiophen-2-yl)-6,7-dihydro-5H-cyclopenta[d]pyrimidin-4-yloxy)benzoic acid], the inhibition at 1 µM amounted to 84%. `COc1ccc(-c2nc3c(c(Oc4ccc(CC(=O)O)cc4)n2)CCC3)cc1F` [Compound 1, 2-(4-(2-(3-Fluoro-4-methoxyphenyl)-6,7-dihydro-5H-cyclopenta[d]pyrimidin-4-yloxy)phenyl)acetic acid]: the inhibition at 1 µM came out at 74%. Still for that read-out and setting: the result for `O=C(O)Cc1ccc(Oc2nc(-c3ccc(Cl)s3)nc3c2C[S+]([O-])CC3)cc1` (centres unmarked) [Compound 23, 2-[4-[[2-(5-Chloro-thiophen-2-yl)-6-oxo-7,8-dihydro-5H-thiopyrano[4,3-d]pyrimidin-4-yl]oxy]-phenyl]-acetic acid] reads 18%; that for `O=C(O)Cc1ccc(Oc2nc(-c3cncs3)nc3c2CCC3)cc1` [Compound 45, 2-(4-(2-(Thiazol-5-yl)-6,7-dihydro-5H-cyclopenta[d]pyrimidin-4-yloxy)phenyl)acetic acid], 55%; that for `Cc1sc(-c2nc3c(c(Oc4ccc(CC(=O)O)cc4)n2)CCC3)cc1Br` [Compound 50, 2-(4-(2-(4-Bromo-5-methylthiophen-2-yl)-6,7-dihydro-5H-cyclopenta[d]pyrimidin-4-yloxy)phenyl)acetic acid], 47%. Regarding `O=C(O)Cc1ccc(Oc2nc(-c3ccc(Cl)s3)nc3c2CCC3)cc1` [Compound 7, 2-(4-(2-(5-Chlorothiophen-2-yl)-6,7-dihydro-5H-cyclopenta[d]pyrimidin-4-yloxy)phenyl)acetic acid], the inhibition at 1 µM was 77% and the 50% inhibitory concentration (IC50) was < 100 nM.

Turning to `O=C(O)Cc1ccc(Oc2nc(-c3cccc(Br)c3)nc3c2CCC3)cc1` [Compound 54, 2-(4-((2-(3-Bromophenyl)-6,7-dihydro-5H-cyclopenta[d]pyrimidin-4-yl)oxy)phenyl)acetic acid], the inhibition at 1 µM amounted to 42%. `COc1ccc(-c2nc3c(c(Oc4ccc(CC(=O)O)cc4)n2)CS(=O)(=O)C3)cc1F` [Compound 16, 2-[4-[[2-(3-Fluoro-4-methoxy-phenyl)-6,6-dioxo-5,7-dihydro-thieno[3,4-d]pyrimidin-4-yl]oxy]-phenyl]-acetic acid]: the inhibition at 1 µM came out at 89% and the concentration for half-maximal inhibition (IC50) is < 100 nM. Regarding `COc1ccc(-c2nc3c(c(Oc4ccc(C(=O)O)cc4)n2)CCC3)cc1F` [Compound 4, 4-(2-(3-Fluoro-4-methoxyphenyl)-6,7-dihydro-5H-cyclopenta[d]pyrimidin-4-yloxy)benzoic acid], the inhibition at 1 µM was 62%.

As to `NC(=O)c1ccc(-c2nc3c(c(Oc4ccc(CC(=O)O)cc4)n2)CCC3)s1` [Compound 47, 2-(4-(2-(5-Carbamoylthiophen-2-yl)-6,7-dihydro-5H-cyclopenta[d]pyrimidin-4-yloxy)phenyl)acetic acid], the inhibition at 1 µM amounted to 79%. Consider `COc1ccc(-c2nc3c(c(Oc4ccc(CC(=O)O)cc4)n2)CCC3)cc1Cl` [Compound 2, 2-(4-(2-(3-Chloro-4-methoxyphenyl)-6,7-dihydro-5H-cyclopenta[d]pyrimidin-4-yloxy)phenyl)acetic acid], for which the inhibition at 1 µM was found to be 75%. Take `O=C(O)Cc1ccc(Oc2nc(-c3ccc(Cl)s3)nc3c2C[S+]([O-])C3)cc1` (centres unmarked) [Compound 20, 2-[4-[[2-(5-Chloro-thiophen-2-yl)-6-oxo-5,7-dihydro-thieno[3,4-d]pyrimidin-4-yl]oxy]-phenyl]-acetic acid]: the inhibition at 1 µM worked out at 103% and the IC50 is < 100 nM. Turning to `O=C(O)Cc1ccc(Oc2nc(-c3ccc(F)c(F)c3)nc3c2CCC3)cc1` [Compound 3, 2-(4-(2-(3,4-Difluorophenyl)-6,7-dihydro-5H-cyclopenta[d]pyrimidin-4-yloxy)phenyl)acetic acid], the inhibition at 1 µM came out at 30%.

For `CSc1ccc(-c2nc3c(c(Oc4ccc(CC(=O)O)cc4)n2)CCC3)s1` [Compound 51, 2-(4-(2-(5-(Methylthio)thiophen-2-yl)-6,7-dihydro-5H-cyclopenta[d]pyrimidin-4-yloxy)phenyl)acetic acid], the inhibition at 1 µM was found to be 84%. In the case of `O=C(O)Cc1ccc(Oc2nc(-c3ccc(Cl)s3)nc3c2CCCC3)cc1` [Compound 10, 2-(4-(2-(5-Chlorothiophen-2-yl)-5,6,7,8-tetrahydroquinazolin-4-yloxy)phenyl)acetic acid], the inhibition at 1 µM turned out to be 49%. Still for that read-out and setting: the result for `CS(=O)(=O)c1ccc(-c2nc3c(c(Oc4ccc(CC(=O)O)cc4)n2)CCC3)s1` [Compound 52, 2-(4-(2-(5-(Methylsulfonyl)thiophen-2-yl)-6,7-dihydro-5H-cyclopenta[d]pyrimidin-4-yloxy)phenyl)acetic acid] reads 53%.

The record behind these values is patent US9670189B2, “Substituted condensed pyrimidine compounds” (GRÜNENTHAL GMBH, priority 2013, dated 2017).
